Experimental data taken from PMC12389580, “Neuromuscular System of Nematodes Is a Target of Synergistic Pharmacological Effects of Carvacrol and Geraniol” (Pharmaceuticals, 2025).

Tests used:
Assay in all cases: two-electrode voltage clamp, Xenopus oocytes
Format in all cases: cell-based
Asu-ACR-16 nAChR [1] = molecular target: T1, Asu-ACR-16 nAChR (Ascaris suum, UniProt A0A0K0QSL7); settings: non-competitive inhibition of ACh-evoked currents, -60 mV
T1 construct: homopentameric nAChR; full-length subunit cRNA injected in Xenopus laevis oocytes; no auxiliary subunit mentioned
T1 sequence (A0A0K0QSL7 1-504): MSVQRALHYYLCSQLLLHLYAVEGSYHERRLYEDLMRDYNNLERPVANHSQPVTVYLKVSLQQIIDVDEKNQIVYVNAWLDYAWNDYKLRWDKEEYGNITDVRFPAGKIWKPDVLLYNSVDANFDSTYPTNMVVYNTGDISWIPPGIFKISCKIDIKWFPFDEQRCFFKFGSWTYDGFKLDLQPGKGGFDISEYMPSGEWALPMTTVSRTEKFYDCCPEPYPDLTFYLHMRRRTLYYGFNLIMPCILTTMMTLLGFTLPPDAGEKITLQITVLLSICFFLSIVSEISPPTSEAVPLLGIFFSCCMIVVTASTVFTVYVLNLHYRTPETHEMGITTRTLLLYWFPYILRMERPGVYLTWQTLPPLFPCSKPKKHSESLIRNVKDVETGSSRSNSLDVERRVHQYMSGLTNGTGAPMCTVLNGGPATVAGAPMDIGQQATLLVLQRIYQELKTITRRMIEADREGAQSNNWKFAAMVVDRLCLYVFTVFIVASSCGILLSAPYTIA

Asu-ACR-16 nAChR [2] = molecular target: T1, Asu-ACR-16 nAChR
Asu-ACR-16 nAChR [3] = molecular target: T1, Asu-ACR-16 nAChR; settings: non-competitive antagonist of ACh-evoked currents, -60 mV

## CC(C)=CCC/C(C)=C/CO [geraniol]
Asu-ACR-16 nAChR [1]
  Emax of ACh at 100 μM geraniol (% of response to 100 μM ACh; control 97.63 ± 0.92%): 39.83 ± 1.49%

## CC(=O)OCC[N+](C)(C)C [acetylcholine]
Asu-ACR-16 nAChR [2]
  EC50: 7.89 ± 1.02 µM

## Cc1ccc(C(C)C)cc1O [carvacrol]
Asu-ACR-16 nAChR [3]
  Emax of ACh at 100 μM carvacrol (% of response to 100 μM ACh): 73.09 ± 1.87%
